Tested on: Frataxin (FXN) mRNA
Assay: Effect of HDAC inhibitors on frataxin (FXN) mRNA expression
Type: cell-based, human (Friedreich's ataxia patient primary lymphocytes)
Conditions: Friedreich's ataxia patient primary lymphocytes, 48 hours
Procedure: Blood is collected from Friedreich's ataxia patient donors into tubes containing the anti-coagulant EDTA. Primary lymphocytes are isolated using Lymphocyte Separation Medium (MP Biomedicals, Solon, Ohio) following the manufacturer's instructions and including a few modifications made by Repligen. After a final wash in Phosphate Buffered Saline (PBS), the cells are distributed into a 6-well cell culture plate in cell growth medium. The test HDAC inhibitor compound is added to cells in a dose escalating manner (usually concentrations range from 1 to 10 μM) and 0.1% DMSO is added to one well of cells as a no treatment control. […] The RNA yield and concentration is determined using a Nanodrop spectrophotometer (Thermo Fisher Scientific, Waltham, Mass.) and depending on the RNA concentration, one of two protocols is used to measure frataxin (FXN) transcript levels. […] In both methods each RNA sample is analyzed in triplicate (preferably) or duplicate (minimally) using a one-step qRT-PCR master mix that contains all the components necessary for cDNA synthesis and PCR amplification in a single, continuous reaction. […] The amount of FXN (or GAPDH) in the sample is determined as the relative quantity to the calibrator where the calibrator sample is assigned an arbitrary quantity of 1. […] The relative quantity of FXN is normalized to cell number and RNA input. […]

Q: How did the “Fxn >2X (concentration required for a 2-fold increase in FXN mRNA)” value turn out when Nc1ccccc1NC(=O)c1ccc2c(cnn2Cc2ccc(F)c(F)c2)c1 [Compound A9] was run?
A: A (A if less than 5 μM)

Q: How did the “Fxn >2X (concentration required for a 2-fold increase in FXN mRNA)” value turn out when Nc1cc(F)ccc1NC(=O)c1ccc2c(cnn2CC2CC2)c1 [Compound A12] was run?
A: C (C if greater than 10 μM)

Source: patent US10428028B2, “HDAC inhibitors” (BIOMARIN PHARMACEUTICAL INC., priority 2013, dated 2019)
